Legend:
rat aortas = test: Contraction of rat aortas induced by potassium depolarization (hyperpotassium medium); parameters: species or system WISTAR rat; conditions: read-out: IC50 (concentration inhibiting by 50% the contraction of rat aortas induced by potassium depolarization)
From the text: The rings are linked to a STATHAM tension sensor (UC2-GOULD).

rabbit aorta [1] = test: Contraction of rabbit aorta induced by noradrenaline in a normal physiological medium; parameters: species or system New Zealand rabbit; conditions: Oryctolagus cuniculus, noradrenaline 10^-6 M, read-out: IC50, noradrenaline stimulus
Method: (§1) Studies are carried out on rings, 3 mm in length, […] The vascular rings are immersed in a normal physiological solution or in a physiological solution lacking calcium (+0.2 mM of the chelating agent EGTA), which is thermostatically regulated at 37° C. and aerated with a 95% O2 +5% CO2 mixture. The rings are linked to a STATHAM tension sensor (UC2-GOULD). The optimal tension for each vessel is applied and a stabilization period of 90 min is observed for the preparations. a) Antivasoconstrictive activity of the compounds of the invention in a physiological medium.

rabbit mesenteric artery = test: Contraction of rabbit mesenteric artery induced by electrical stimulation; parameters: species or system New Zealand rabbit; conditions: Oryctolagus cuniculus, normal physiological medium
Method: as §1

rabbit aorta [2] = test: Contraction of rabbit aorta induced by endothelin in a normal physiological medium; parameters: species or system New Zealand rabbit; conditions: Oryctolagus cuniculus, read-out: IC50, endothelin stimulus
Method: as §1

rabbit aorta [3] = test: Contraction of rabbit aorta induced by phorbol ester in a normal physiological medium; parameters: species or system New Zealand rabbit; conditions: Oryctolagus cuniculus, TPA 10^-5 M, read-out: IC50, phorbol ester stimulus
Method: as §1

pig coronary artery = test: Vascular contraction of pig coronary artery induced by acetylcholine; conditions: Sus scrofa, 10^-5 M, preincubated 15 minutes
Method: Studies are carried out on rings, 3 mm in length, - or of coronary arteries from pigs anesthetized with nesdonal (8 mg/kg intravenously). The vascular rings are immersed in a normal physiological solution or in a physiological solution lacking calcium (+0.2 mM of the chelating agent EGTA), which is thermostatically regulated at 37° C. and aerated with a 95% O2 +5% CO2 mixture. The rings are linked to a STATHAM tension sensor (UC2-GOULD). The optimal tension for each vessel is applied and a stabilization period of 90 min is observed for the preparations. a) Antivasoconstrictive activity of the compounds of the invention in a physiological medium.

rabbit aorta [4] = test: Contraction of rabbit aorta induced by phorbol ester in a medium without calcium; parameters: species or system New Zealand rabbit; conditions: Oryctolagus cuniculus, 10^-5 M, medium lacking calcium
Method: as §1, with “b)” for “a)”, “medium without calcium.” for “physiological medium.”

guinea pig left auricle = test: Ouabain intoxication of guinea pig left auricle; conditions: compound 10^-5 M
[5] = test system: vasopressor effect of phenylephrine; test: Cardiovascular reactivity to phenylephrine in wakeful rats, oral administration; assay type: in vivo, WISTAR rat
Method: After a 30 to 60 min period of stabilization of wakeful WISTAR rats, a range of concentrations of phenylephrine (between 0 and 16 μg/kg) is injected intravenously.
Reading of the mean blood pressure and heart rate is carried out at the point where the pressor effect reaches its maximum. After a washing time of at least 2 hours, the test compound is administered intravenously (10 mg/kg) followed 15 minutes later by a new range of phenylephrine.
b) Effects of the compounds of the invention, administered orally, on the cardiovascular reactivity of phenylephrine.
The procedure is carried out as above but the intravenous administration of the test compounds is replaced by oral administration (5, 10 and 20 mg/kg) of the test compound. The phenylephrine range is repeated 0.5, 1, 2, 3, 4, 5 and 6 hours after administration of the compound.

Structure (SMILES): CN(CC1CCN(CCCOc2ccc(F)cc2)CC1)S(=O)(=O)c1cccc2cnccc12.Cl.Cl [Example 17, N-Methyl-N-{[1-[3-(p-fluorophenoxy)propyl]-4-piperidyl]methyl}-5-isoquinolinesulfonamide dihydrochloride]
- IC50 (rat aortas): 1500 nM
- IC50 (rabbit aorta [1]): 1500 nM
- IC50 (rabbit mesenteric artery): 100 nM
- IC50 (rabbit aorta [2]): 3.3 µM
- IC50 (rabbit aorta [3]): 21 µM
- inhibition at 10 µM (pig coronary artery): 64%
- inhibition at 10 µM (rabbit aorta [4]): 35%
- % contraction (guinea pig left auricle; 10 min): 201.5 ± 31.5%
- Contracture (%) (guinea pig left auricle; 15 min): 0%
- % contraction (guinea pig left auricle; 30 min): 186.5 ± 46%
- Contracture (%) (guinea pig left auricle; 30 min): 2.5 ± 2.5%
- % contraction (guinea pig left auricle; 60 min): 179 ± 44%
- Contracture (%) (guinea pig left auricle; 60 min): 5 ± 3.3%
- reduction of the vasopressor effect of phenylephrine ([5]; 20 mg/kg oral, maximum after 2 hours): 60%
- time of appearance of the inhibitory activity ([5]; after oral administration): 30 min
- time of maximum inhibitory activity ([5]; after oral administration, 20 mg/kg): 2 h
- duration for which the inhibitory activity remains stable ([5]; oral): 6 h

Source: patent publication US5208243A, “5-isoquinolinesulfonamides” (Adir et Compagnie, priority 1991, dated 1993)
